# Values of other authors as cited in patent publication US20080207601A1, “Methods of and Compositions For the Prevention of Anxiety, Substance Abuse, and Dependence” (Hythiam , Inc., priority 2005, published 2008).
# How the values were obtained:
# [1] = in vivo
# [2] = as much as
# [3] = not given; remark: listed apart in the source
# allopregnanolone = details: clinical studies
smiles,measurement,setting,value
N[C@@H]1C[C@H]1c1ccccc1 (racemic) [TRANYLCYPROMINE],time in which the drug is excreted,[1],24 h
"C[C@]12C=CC(=O)N[C@@H]1CC[C@@H]1[C@@H]2CC[C@]2(C)[C@@H](C(=O)Nc3cc(C(F)(F)F)ccc3C(F)(F)F)CC[C@@H]12 [Dutasteride, (5α,17β)-N-{2,5 bis(trifluoromethyl)phenyl}-3-oxo-4-azaandrost-1-ene-17-carboxamide]",adverse effects compared with therapeutic dose of 0.5 mg,"daily doses of 5 mg, 60 subjects, 6 months",subjects for 6 months with no additional adverse effects to those
same,safety concerns,"single doses up to 40 mg (80 times the therapeutic dose) for 7 days, volunteer studies","without significant safety concerns. In a clinical study, daily doses"
CC(=O)[C@H]1CC[C@H]2[C@@H]3CC[C@H]4C[C@@H](O)CC[C@]4(C)[C@H]3CC[C@]12C [isopregnanolone],effect on potentiation of GABAA receptor function by allopregnanolone and alphaxalone,GABAA receptor,inhibited
CC(=O)[C@H]1CC[C@H]2[C@@H]3CC[C@@H]4C[C@@H](O)CC[C@]4(C)[C@H]3CC[C@]12C [epipregnanolone],effect on potentiation of GABAA receptor function by allopregnanolone and alphaxalone,GABAA receptor,inhibited
CN1C(=O)CN=C(c2ccccc2)c2cc(Cl)ccc21 [diazepam],effect on the positive modulation of 3 μM flumazenil induced by ethanol withdrawal,GABAA receptors; 10 μM diazepam substituted for ethanol,negated the positive modulation
CCCC(C)(COC(N)=O)COC(N)=O [MEPROBROMATE],ingested amount with reported survival,[2],much as 40 g.
COc1cccc(C2(O)CCCCC2CN(C)C)c1 (centres unmarked) [TRAMADOL],potency relative to morphine,[3]; IV/IM route,"Tramadol is approximately 10% as potent as morphine, when given"
"CCOC(=O)c1ncn2c1CN(C)C(=O)c1cc(F)ccc1-2 [flumazenil, ethyl 8-fluoro-5,6-dihydro-5-methyl-6-oxo-4H-imidazo-[1,5-a][1,4]benzodiazepine-3-carboxylate]",modulation of the GABA evoked Cl-current,"GABAA receptors; 3 μM flumazenil, ethanol withdrawn cells",potentiates
CNCCC(Oc1ccc(C(F)(F)F)cc1)c1ccccc1 (centres unmarked) [Fluoxetine],brain and cerebrospinal fluid content of allopregnanolone,allopregnanolone,increase
COc1ccc2c3c1O[C@H]1[C@@H](O)CC[C@H]4[C@@H](C2)N(C)CC[C@@]341 [DIHYDROCODEINE],potency relative to codeine,[3]; in vivo,Dihydrocodeine is approximately twice as potent as codeine; this is
